In patent US20240124431A1, “2,3-DIHYDRO-4H-BENZO[B][1,4]OXAZIN-4-YL)(5-(PHENYL)-PYRIDIN-3-YL)METHANONE DERIVATIVES AND SIMILAR COMPOUNDS AS CYP11A1 INHIBITORS FOR THE TREATMENT OF PROSTATE CANCER” (ORION CORPORATION, priority 2020, published 2024):

Biological target: T1, CYP11A1 (Homo sapiens, UniProt P05108)
T1 construct: endogenous in cells; host or cells: NCI-H295R
T1 sequence (P05108 40-521): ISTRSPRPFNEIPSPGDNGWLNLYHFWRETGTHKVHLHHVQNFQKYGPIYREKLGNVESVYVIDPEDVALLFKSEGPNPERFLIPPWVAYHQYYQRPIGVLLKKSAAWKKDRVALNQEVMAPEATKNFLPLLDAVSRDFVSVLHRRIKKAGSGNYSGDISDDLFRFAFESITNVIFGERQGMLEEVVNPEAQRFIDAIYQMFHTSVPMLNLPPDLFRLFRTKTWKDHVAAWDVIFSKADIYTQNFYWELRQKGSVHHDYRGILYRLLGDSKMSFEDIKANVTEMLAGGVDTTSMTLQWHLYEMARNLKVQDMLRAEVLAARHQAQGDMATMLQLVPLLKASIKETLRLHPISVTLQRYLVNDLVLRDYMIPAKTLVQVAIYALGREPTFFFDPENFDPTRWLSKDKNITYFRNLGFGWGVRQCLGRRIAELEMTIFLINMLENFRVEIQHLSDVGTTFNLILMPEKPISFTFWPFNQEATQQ
Assay: CYP11A1 inhibition: pregnenolone biosynthesis measured by ELISA in NCI-H295R cells
Assay type: cell-based
Details: NCI-H295R cells treated for 24 hours, 10 concentrations in duplicates, read-out: IC50 on CYP11A1 inhibition (Group)
Procedure: The ability of the test compounds to inhibit pregnenolone biosynthesis was measured by enzyme-linked immunosorbent assay (ELISA) detecting pregnenolone (Abnova Pregnenolone ELISA Kit, KA1912). […] To determine the half maximal inhibitory concentration (IC50) of the test compounds on CYP11A1 inhibition, the cells were treated for 24 hours with increasing concentrations of the test compound. The final DMSO concentration was 0.4%. Medium samples were diluted 1:6 and pregnenolone amounts determined with ELISA. Manufacturer's recommended protocols were used and pregnenolone (Sigma-Aldrich, P9129) standards were prepared in cell culture medium. Absorbance (A450) was measured with Envision plate reader (PerkinElmer). All the test compounds were studied at 10 concentrations in duplicates.

IC50 [µM] | SMILES
< 0.05 | Cc1cnn(-c2cncc(C(=O)N3CCCc4ccccc43)c2)c1 [Compound 88, (3,4-Dihydroquinolin-1(2H)-yl)(5-(4-methyl-1H-pyrazol-1-yl)pyridin-3-yl)-methanone]
0.201 to 2.5 | O=C(Cc1cncc(-c2ccc(F)cc2)c1)N1CCOc2ccccc21 [Compound 86, 1-(2,3-Dihydro-4H-benzo[b][1,4]oxazin-4-yl)-2-(5-(4-fluorophenyl)pyridin-3-yl)ethan-1-one]
0.051 to 0.2 | Cc1cc(C)n(-c2cncc(C(=O)N3CCCc4ccccc43)n2)n1 [Compound 87, (3,4-Dihydroquinolin-1(2H)-yl)(6-(3,5-dimethyl-1H-pyrazol-1-yl)pyrazin-2-yl)-methanone]
< 0.05 | Cc1cn(-c2cncc(C(=O)N3CCCc4ccccc43)n2)cn1 [Compound 83, (3,4-Dihydroquinolin-1(2H)-yl)(6-(4-methyl-1H-imidazol-1-yl)pyrazin-2-yl)-methanone]
0.201 to 2.5 | O=C(c1cncc(-c2ccc(F)c([N+](=O)[O-])c2)c1)N1CCOc2ccccc21 [Compound 58, (2,3-Dihydro-4H-benzo[b][1,4]oxazin-4-yl)(5-(4-fluoro-3-nitrophenyl)pyridin-3-yl)methanone]
0.201 to 2.5 | O=C(c1cncc(-c2ccc(F)cc2)c1)N1CCc2ccccc21 [Compound 60, (5-(4-Fluorophenyl)pyridin-3-yl)(indolin-1-yl)methanone]
0.201 to 2.5 | Fc1ccc(-c2cncc(CN3CCOc4ccccc43)c2)cc1 [Compound 91]
0.051 to 0.2 | Fc1ccc(-c2cncc(CN3CCCc4ccccc43)c2)cc1 [Compound 89, 1-((5-(4-Fluorophenyl)pyridin-3-yl)methyl)-1,2,3,4-tetrahydroquinoline]
0.201 to 2.5 | COc1ccc2c(c1)N(C(=O)c1cncc(-c3ccccc3)c1)CCC2 [Compound 69, (7-Methoxy-3,4-dihydroquinolin-1(2H)-yl)(5-phenylpyridin-3-yl)methanone]
0.201 to 2.5 | O=C(c1cncc(-c2ccncc2)c1)N1CCCc2ccccc21 [Compound 62, [3,4′-Bipyridin]-5-yl(3,4-dihydroquinolin-1(2H)-yl)methanone]
0.201 to 2.5 | O=C(c1cncc(-c2ccc3c(c2)OCC3)c1)N1CCOC2CCCCC21 (centres unmarked) [Compound 72, (5-(2,3-Dihydrobenzofuran-6-yl)pyridin-3-yl)(octahydro-4H-benzo[b][1,4]-oxazin-4-yl)methanone]
0.201 to 2.5 | CN1CCN(c2cncc(C(=O)N3CCOc4ccccc43)n2)CC1 [Compound 78, (2,3-Dihydro-4H-benzo[b][1,4]oxazin-4-yl)(6-(4-methylpiperazin-1-yl)pyrazin-2-yl)methanone]
0.201 to 2.5 | O=C(Cc1cncc(-c2ccc(F)cc2)c1)N1CCCc2ccccc21 [Compound 79, 1-(3,4-Dihydroquinolin-1(2H)-yl)-2-(5-(4-fluorophenyl)pyridin-3-yl)ethan-1-one]
0.201 to 2.5 | CN(C)Cc1ccc(-c2cncc(C(=O)N3CCCc4ccccc43)c2)cc1 [Compound 68, (3,4-Dihydroquinolin-1(2H)-yl)(5-(4-((dimethylamino)methyl)phenyl)pyridin-3-yl)methanone]

More lines, now with the values behind:

SMILES | IC50 [µM]
O=C(c1cnnc(-c2ccc(F)cc2)c1)N1CCOc2ccccc21 [Compound 40, (2,3-Dihydro-4H-benzo[b][1,4]oxazin-4-yl)(6-(4-fluorophenyl)pyridazin-4-yl)-methanone] | < 0.05
O=C(c1cncc(-c2ccc(F)cc2)c1)N1CCOc2ccccc21 [Compound 24, (2,3-Dihydro-4H-benzo[b][1,4]oxazin-4-yl)(5-(4-fluorophenyl)pyridin-3-yl)-methanone] | < 0.05
O=C(c1cncc(-c2ccc(F)cc2)c1)N1CCCc2ncccc21 [Compound 42, (3,4-Dihydro-1,5-naphthyridin-1(2H)-yl)(5-(4-fluorophenyl)pyridin-3-yl)-methanone] | 0.051 to 0.2
COc1cccc(-c2cncc(C(=O)N3CCOc4ccccc43)c2)c1 [Compound 50, (2,3-Dihydro-4H-benzo[b][1,4]oxazin-4-yl)(5-(3-methoxyphenyl)pyridin-3-yl)-methanone] | 0.051 to 0.2
O=C(c1cncc(-n2cccc2)c1)N1CCCc2ccccc21 [Compound 39, (5-(1H-Pyrrol-1-yl)pyridin-3-yl)(3,4-dihydroquinolin-1(2H)-yl)methanone] | < 0.05
O=C(c1cncc(-c2ccc(F)cc2)c1)N1CCCc2ccccc21 [Compound 16, (3,4-Dihydroquinolin-1(2H)-yl)(5-(4-fluorophenyl)pyridin-3-yl)methanone] | < 0.05
O=C(c1cncc(-c2ccccc2)n1)N1CCCc2ncccc21 [Compound 37, (3,4-Dihydro-1,5-naphthyridin-1(2H)-yl)(6-phenylpyrazin-2-yl)methanone] | < 0.05
COc1ccc2c(c1)CCCN2C(=O)c1cncc(-c2ccccc2)c1 [Compound 53, (6-Methoxy-3,4-dihydroquinolin-1(2H)-yl)(5-phenylpyridin-3-yl)methanone] | 0.051 to 0.2
O=C(c1cncc(-c2ccccc2)c1)N1CCOc2ccccc21 [Compound 10, (2,3-Dihydro-4H-benzo[b][1,4]oxazin-4-yl)(5-phenylpyridin-3-yl)methanone] | < 0.05
O=C(c1cncc(-c2ccc3ncoc3c2)n1)N1CCOc2ccccc21 [Compound 8, (6-(Benzo[d]oxazol-6-yl)pyrazin-2-yl)(2,3-dihydro-4H-benzo[b][1,4]oxazin-4-yl)methanone] | < 0.05
O=C(c1cncc(-c2ccc3c(c2)OCC3)n1)N1CCCc2ccccc21 [Compound 12, (6-(2,3-Dihydrobenzofuran-6-yl)pyrazin-2-yl)(3,4-dihydroquinolin-1(2H)-yl)-methanone] | < 0.05
O=C(c1cncc(-c2cccc(OC(F)(F)F)c2)n1)N1CCOc2ccccc21 [Compound 9, (2,3-Dihydro-4H-benzo[b][1,4]oxazin-4-yl)(6-(3-(trifluoromethoxy)phenyl)-pyrazin-2-yl)methanone] | 0.051 to 0.2
O=C(c1cncc(-c2ccc(F)cc2F)c1)N1CCOc2ccccc21 [Compound 28, (5-(2,4-Difluorophenyl)pyridin-3-yl)(2,3-dihydro-4H-benzo[b][1,4]oxazin-4-yl)-methanone] | < 0.05
O=C(c1cncc(-c2ccc(F)cc2)n1)N1CCOc2ccccc21 [Compound 20, (2,3-Dihydro-4H-benzo[b][1,4]oxazin-4-yl)(6-(4-fluorophenyl)pyrazin-2-yl)-methanone] | < 0.05
COc1ccc(-c2cncc(C(=O)N3CCCc4ccccc43)c2)cc1 [Compound 18, (3,4-Dihydroquinolin-1(2H)-yl)(5-(4-methoxyphenyl)pyridin-3-yl)methanone] | < 0.05
COc1cc(F)ccc1-c1cncc(C(=O)N2CCOc3ccccc32)c1 [Compound 45, (2,3-Dihydro-4H-benzo[b][1,4]oxazin-4-yl)(5-(4-fluoro-2-methoxyphenyl)-pyridin-3-yl)methanone] | 0.051 to 0.2
O=C(c1cncc(-c2ccc(F)cc2)c1)N1CCO[C@H]2CCCC[C@@H]21 [Compound 56, (5-(4-Fluorophenyl)pyridin-3-yl)((4aS,8aS)-octahydro-4H-benzo[b][1,4]oxazin-4-yl)methanone] | 0.051 to 0.2
O=S(=O)(c1cncc(-c2ccc(F)cc2)c1)N1CCCc2ccccc21 [Compound 47, 1-((5-(4-Fluorophenyl)pyridin-3-yl)sulfonyl)-1,2,3,4-tetrahydroquinoline] | 0.051 to 0.2
COc1cccc(-c2cncc(C(=O)N3CCCc4ccccc43)n2)c1 [Compound 25, (3,4-Dihydroquinolin-1(2H)-yl)(6-(3-methoxyphenyl)pyrazin-2-yl)methanone] | < 0.05
O=C(c1cncc(-c2cccc(C(F)(F)F)c2)c1)N1CCOc2ccccc21 [Compound 48, (2,3-Dihydro-4H-benzo[b][1,4]oxazin-4-yl)(5-(3-(trifluoromethyl)phenyl)pyridin-3-yl)methanone] | 0.051 to 0.2
O=C(c1cncc(-c2ccc(F)cc2)c1)N1CCO[C@@H]2CCCC[C@H]21 [Compound 57, (5-(4-Fluorophenyl)pyridin-3-yl)((4aR,8aR)-octahydro-4H-benzo[b][1,4]oxazin-4-yl)methanone] | 0.201 to 2.5
Cc1c(C(=O)N2CCCc3ccccc32)cncc1-c1ccccc1 [Compound 4, (3,4-Dihydroquinolin-1(2H)-yl)(4-methyl-5-phenylpyridin-3-yl)methanone] | 0.051 to 0.2
Cn1cc(-c2cncc(C(=O)N3CCOc4ccccc43)n2)cn1 [Compound 43, (2,3-Dihydro-4H-benzo[b][1,4]oxazin-4-yl)(6-(1-methyl-1H-pyrazol-4-yl)-pyrazin-2-yl)methanone] | 0.051 to 0.2
O=C(c1cncc(-c2ccc(F)c(F)c2)c1)N1CCOc2ccccc21 [Compound 19, (5-(3,4-Difluorophenyl)pyridin-3-yl)(2,3-dihydro-4H-benzo[b][1,4]oxazin-4-yl)-methanone] | < 0.05
